Experimental findings from patent publication US7781393B2, “Methods for inhibiting tumor cell growth” (Dana-Farber Cancer Institute, Inc., priority 2004, dated 2010) are described below.

One may read the IC50 as the concentration needed to halve the response being measured.

Holding throughout (type): cell-based, human
The subject of one experiment is MM cell lines. The experiment in a line: MTT colorimetric survival assay, serum-stimulated MM cell lines. On the procedure: Cell survival of IGF-1R inhibitor-treated cells was examined using the 3-(4,5-Dimethylthiazol-2-yl)-2,5-Diphenyltetrazolium Bromide (MTT) calorimetric assay. […] At the end of each treatment, cells were incubated with 1 mg/ml MTT for 4 hours at 37° C.; a mixture of isopropanol and 1N HCl (23:2, v/v) was then added under vigorous pipetting to dissolve the formazan crystals. Dye absorbance (A) in viable cells was measured at 570 nm, with 630 nm as a reference wavelength. Cell survival was estimated as a percentage of the value of untreated controls. All experiments were repeated at least three times, and each experimental condition was repeated at least in quadruplicate wells in each experiment.
(In general: Formazan colour is commonly taken as a measure of viable cells.)

Experiment [1] relates to 58 hematologic and solid tumor cell lines. The experiment in a line: MTT colorimetric survival assay, panel of hematologic and solid tumor cell lines. Conditions: all cell lines; 0-10 μM for 72 hours.
In the next experiment the test system is primary MM tumor cells. The experiment is described as follows: MTT survival assay, short-term culture of primary MM tumor cells. Conditions: all primary patient samples tested. An excerpt:
The dexamethasone (Dex)-sensitive parental line MM-1S and its Dex-resistant subline MM-1R cells were kindly provided by Dr Steven Rosen (Northwestern University, Chicago, Ill.); the chemo-sensitive parental MM cell line RPMI-8226/S, and its chemo-resistant sublines RPMI-8226/Dox40 (doxorubicin-resistant), RPMI-8226/MR20 (mitoxantrone-resistant), RPMI-8226/LR5 (melphalan-resistant) cells were kindly provided by Dr William Dalton (lee Moffitt Cancer Center, Tampa, Fla.); the OCI-My5 cells were provided by Dr Meissner (University of Ontario, Toronto, Canada); the EJM, LP-1, KMM1, K620, OPM-1, and OPM-2 cells were provided by Dr Leif Bergsagel; INA-6 cells were provided by Renate Burger (University of Erlangen-Nuernberg, Germany); XG-1 cells were obtained from Dr Pierfrancesco Tassone (University of Magna Grecia, Italy); NCI-H929 and U266 cells were purchased from American Type Cell Culture (ATCC); MM-1S-myrAkt and MM-1S-Bcl-2 cells were established by stable transfection of MM-1S cells with constructs encoding for constitutively active myristoylated form of Akt and for Bcl-2, respectively. […] Purity (>95%) was assessed by both morphology and flow cytometry (Becton-Dickinson FACSort, Franklin Lakes, N.J.). […]

A further experiment relates to CD138+ MM cells. The experiment in a line: Flow cytometric analysis of unpurified bone marrow mononuclear cells. The conditions noted are these: 500 nM, 72 hours, 20% serum; BM stromal cells not suppressed. On the technique in general: In flow cytometry, cells or beads pass a laser one at a time.
Experiment [2] has as its system VEGF secretion by myeloma cells and BMSCs. The experiment is described as follows: VEGF ELISA, MM cells and BMSCs alone and in co-culture. The conditions noted are these: 500 nM for 24 hrs. The method, then:
(§1) Flow cytometric analyses for IGF-1R, and IGF-2R were performed as previously described on a EPICS-XL-MCL flow cytometer (Beckman Coulter). Previously described protocols were applied for immunoblotting analyses; TRAP telomerase activity assay; 20S proteasome chymotryptic activity assay; DNA binding activity ELISAs for quantitative assessments of NF-κB and HIF-1a transcriptional activities. VEGF and IGF-1 ELISAs were performed according to manufacturer's instructions (R&D Systems, Minneapolis, Minn.).
A general note: In an ELISA, binding on a coated surface is turned into a signal by an enzyme label.

The test system of experiment [3] is SW579 papillary thyroid carcinoma cells. The experiment is described as follows: VEGF ELISA, IGF-1-stimulated thyroid carcinoma cells. Conditions: 750 nM; IGF-1 200 ng/mL in serum-free medium. On the procedure:
as §1

A further experiment has as its system MM-1S cells. The experiment in a line: Immunoblotting of anti-apoptotic signaling cascades. Conditions: 500 nM, serum-containing medium. The method, then:
as §1

As for `Nc1ncnc2c1c(-c1cccc(OCc3ccccc3)c1)cn2[C@H]1C[C@H](CN2CCCC2)C1` [ADW-742, trans-5-(3-benzyloxy-phenyl)-7-(3-pyrrolidin-1-ylmethyl-cyclobutyl)-7H-pyrrolo[2,3-d]pyrimidin-4-ylamine], the IC50 with MM cell lines (Homo sapiens, values generally in this range, 0-10 μM for 72 hours, read-out: IC50, serum-induced cell growth of MM cell lines) fell in the range of 100 to 500 nM. For the same molecule, the “activity against MM cell lines with known resistance to conventional or investigational anti-cancer agents” value in the experiment with MM cell lines (also primary tumor cells from MM patients with multi-drug resistant disease) was “active”. In addition, the “inhibition of serum-induced cell growth” value in experiment [1] is “Dose-dependent inhibition”. In the experiment with primary MM tumor cells, the “serum-induced growth of primary MM patient samples” value is given as “completely suppresses”. Further, the “CD138+ population of malignant cells” value in the experiment on CD138+ MM cells is given as “significant suppression”. Moreover, in experiment [2], the “constitutive and co-culture-induced secretion of VEGF” value is on record as “suppresses”. Also, in experiment [3], the “IGF-1-induced secretion of VEGF” value is recorded as “suppresses”. In the experiment with MM-1S cells, the “Akt, MEK1/2 and FKHRL-1 phosphorylation” value is reported as “early suppression”; the “intracellular levels of Akt, Bmx, IKK-α and RANKL” value is listed as “decrease”.
